# Experimental data as given in patent US20230167073A1 (Teijin Pharma Limited, priority 2020, published 2023).
# Target: T1, Human TRPC6 (Homo sapiens, UniProt Q9Y210)
# T1 construct: expressed in transfected cells
# T1 sequence (Q9Y210 1-931): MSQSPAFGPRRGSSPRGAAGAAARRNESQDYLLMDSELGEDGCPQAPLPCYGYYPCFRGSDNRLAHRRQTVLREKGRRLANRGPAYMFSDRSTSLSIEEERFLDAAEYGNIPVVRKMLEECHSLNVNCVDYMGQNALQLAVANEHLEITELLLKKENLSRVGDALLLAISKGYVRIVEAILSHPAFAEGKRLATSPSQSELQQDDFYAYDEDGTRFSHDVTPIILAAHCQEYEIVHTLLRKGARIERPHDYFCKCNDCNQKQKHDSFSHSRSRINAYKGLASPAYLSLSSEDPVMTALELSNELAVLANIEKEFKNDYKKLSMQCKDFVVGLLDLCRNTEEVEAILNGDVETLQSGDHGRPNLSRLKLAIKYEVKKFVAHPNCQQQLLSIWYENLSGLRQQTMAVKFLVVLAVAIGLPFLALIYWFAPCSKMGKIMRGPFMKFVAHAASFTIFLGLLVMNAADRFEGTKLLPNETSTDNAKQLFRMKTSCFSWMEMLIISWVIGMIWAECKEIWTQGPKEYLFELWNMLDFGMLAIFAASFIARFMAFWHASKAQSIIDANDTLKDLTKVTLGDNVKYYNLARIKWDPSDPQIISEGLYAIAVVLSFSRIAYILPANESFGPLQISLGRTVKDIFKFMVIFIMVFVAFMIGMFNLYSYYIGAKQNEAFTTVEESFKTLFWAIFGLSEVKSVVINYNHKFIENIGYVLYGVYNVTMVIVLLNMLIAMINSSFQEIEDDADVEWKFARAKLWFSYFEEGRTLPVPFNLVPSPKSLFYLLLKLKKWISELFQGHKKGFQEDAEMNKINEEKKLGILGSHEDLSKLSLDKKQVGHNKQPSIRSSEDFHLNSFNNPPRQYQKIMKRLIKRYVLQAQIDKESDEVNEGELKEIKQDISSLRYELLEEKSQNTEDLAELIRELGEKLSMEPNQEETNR
# Experiment: Evaluation of TRPC6 channel inhibitory activity (1), FLIPR Calcium 5 Assay Kit, OAG stimulation (Compound Nos. 1-1293)
# Format: cell-based
# Settings: Human TRPC6 stably-expressing cells, OAG 30 μM, FLIPR Calcium 5 Assay Kit; read-out: Inhibitory activity (pIC50 class) (converted)
# Method in brief: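 Readout is pIC50 from four-parameter logistic fitting of inhibition of the OAG-evoked (30 μM final) fluorescence calcium signal. Human TRPC6 stable cells are dye-loaded with probenecid, and compound is applied 20 min ahead of agonist.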
row,IC50 [nM],Structure (SMILES)
1,> 1000,"Cc1nc(CN2CCCC2)cn1Cc1cc(C#N)ccc1-c1ncc(CCN)cn1 [compound 1175, 4-[5-(2-aminoethyl)pyrimidin-2-yl]-3-[[2-methyl-4-(pyrrolidin-1-ylmethyl)imidazol-1-yl]methyl]benzonitrile]"
2,10 to 1000,"Cc1nc(C(F)F)cn1Cc1cc(C#N)ccc1-c1ncc(CCN)cn1 [compound 1176, 4-[5-(2-aminoethyl)pyrimidin-2-yl]-3-[[4-(difluoromethyl)-2-methylimidazol-1-yl]methyl]benzonitrile]"
3,> 1000,"Cc1nc(CN2CCC(F)CC2)cn1Cc1cc(C#N)ccc1-c1ncc(CCN)cn1 [compound 1177, 4-[5-(2-aminoethyl)pyrimidin-2-yl]-3-[[4-[(4-fluoropiperidin-1-yl)methyl]-2-methylimidazol-1-yl]methyl]benzonitrile]"
4,> 1000,"Cc1nc(CN(C)C)cn1Cc1cc(C#N)ccc1-c1ncc(CCN)cn1 [compound 1178, 4-[5-(2-aminoethyl)pyrimidin-2-yl]-3-[[4-[(dimethylamino)methyl]-2-methylimidazol-1-yl]methyl]benzonitrile]"
5,> 1000,"Cc1nc(CN2CCC(C(F)(F)F)CC2)cn1Cc1cc(C#N)ccc1-c1ncc(CCN)cn1 [compound 1180, 4-[5-(2-aminoethyl)pyrimidin-2-yl]-3-[[2-methyl-4-[[4-(trifluoromethyl)piperidin-1-yl]methyl]imidazol-1-yl]methyl]benzonitrile]"
6,> 1000,"Cc1nc(CNC(C)C)cn1Cc1cc(C#N)ccc1-c1ncc(CCN)cn1 [compound 1181, 4-[5-(2-aminoethyl)pyrimidin-2-yl]-3-[[2-methyl-4-[(propan-2-ylamino)methyl]imidazol-1-yl]methyl]benzonitrile]"
7,> 1000,"N#Cc1ccc(-c2ncc(CCN)cn2)c(Cn2ccnc2-c2ccccc2)c1 [compound 1182, 4-[5-(2-aminoethyl)pyrimidin-2-yl]-3-[(2-phenylimidazol-1-yl)methyl]benzonitrile]"
8,> 1000,N#Cc1ccc(-c2ncc(CN)cn2)c(Cn2ccnc2-c2ccccc2)c1 [compound 1183]
9,< 10,"CC(C)Cc1cn(Cc2cc(C#N)ccc2-c2ncc(CCN)cn2)nn1 [compound 1184, 4-[5-(2-aminoethyl)pyrimidin-2-yl]-3-[[4-(2-methylpropyl)triazol-1-yl]methyl]benzonitrile]"
10,< 10,"CC(C)c1cn(Cc2cc(C#N)ccc2-c2ncc(CCN)cn2)nn1 [compound 1185, 4-[5-(2-aminoethyl)pyrimidin-2-yl]-3-[(4-propan-2-yltriazol-1-yl)methyl]benzonitrile]"
11,< 10,"N#Cc1ccc(-c2ncc(CCN)cn2)c(Cn2cc(C3CCCCC3)nn2)c1 [compound 1186, 4-[5-(2-aminoethyl)pyrimidin-2-yl]-3-[(4-cyclohexyltriazol-1-yl)methyl]benzonitrile]"
12,10 to 1000,"CC(C)Cc1cn(Cc2cc(C#N)ccc2-c2ncc(CN)cn2)nn1 [compound 1188, 4-[5-(aminomethyl)pyrimidin-2-yl]-3-[[4-(2-methylpropyl)triazol-1-yl]methyl]benzonitrile]"
13,10 to 1000,"CC(C)c1cn(Cc2cc(C#N)ccc2-c2ncc(CN)cn2)nn1 [compound 1189, 4-[5-(aminomethyl)pyrimidin-2-yl]-3-[(4-propan-2-yltriazol-1-yl)methyl]benzonitrile]"
14,10 to 1000,"N#Cc1ccc(-c2ncc(CN)cn2)c(Cn2cc(C3CCCCC3)nn2)c1 [compound 1190, 4-[5-(aminomethyl)pyrimidin-2-yl]-3-[(4-cyclohexyltriazol-1-yl)methyl]benzonitrile]"
15,10 to 1000,"N#Cc1ccc(-c2ncc(CN)cn2)c(Cn2cc(C3CC3)nn2)c1 [compound 1191, 4-[5-(aminomethyl)pyrimidin-2-yl]-3-[(4-cyclopropyltriazol-1-yl)methyl]benzonitrile]"
16,> 1000,"Cc1nc(-c2cncc(F)c2)cn1Cc1cc(C#N)ccc1-c1ncc(CN)cn1 [compound 1192, 4-[5-(aminomethyl)pyrimidin-2-yl]-3-[[4-(5-fluoropyridin-3-yl)-2-methylimidazol-1-yl]methyl]benzonitrile]"
17,10 to 1000,"Cc1nc(-c2cncc(F)c2)cn1Cc1cc(C#N)ccc1-c1ccc(CCN)cn1 [compound 1193, 4-[5-(2-aminoethyl)pyridin-2-yl]-3-[[4-(5-fluoropyridin-3-yl)-2-methylimidazol-1-yl]methyl]benzonitrile]"
18,> 1000,"Cc1nc(-c2cncc(F)c2)cn1Cc1cc(C#N)ccc1-c1ncc(CCN)cn1 [compound 1194, 4-[5-(2-aminoethyl)pyrimidin-2-yl]-3-[[4-(5-fluoropyridin-3-yl)-2-methylimidazol-1-yl]methyl]benzonitrile]"
19,10 to 1000,"CC(C)Cn1cc(Cc2cc(C#N)ccc2-c2ncc(CN)cn2)cn1 [compound 1196, 4-[5-(aminomethyl)pyrimidin-2-yl]-3-[[1-(2-methylpropyl)pyrazol-4-yl]methyl]benzonitrile]"
20,10 to 1000,"N#Cc1ccc(-c2ncc(CCN)cn2)c(Cc2cnn(-c3ccccn3)c2)c1 [compound 1197, 4-[5-(2-aminoethyl)pyrimidin-2-yl]-3-[(1-pyridin-2-ylpyrazol-4-yl)methyl]benzonitrile]"
21,< 10,"Cc1nn(CC(C)C)cc1Cc1cc(C#N)ccc1-c1ncc(CCN)cn1 [compound 1199, 4-[5-(2-aminoethyl)pyrimidin-2-yl]-3-[[3-methyl-1-(2-methylpropyl)pyrazol-4-yl]methyl]benzonitrile]"
22,10 to 1000,"N#Cc1ccc(-c2ncc(CCN)cn2)c(Cn2cc(N3CCOCC3)cn2)c1 [compound 1200, 4-[5-(2-aminoethyl)pyrimidin-2-yl]-3-[(4-morpholin-4-ylpyrazol-1-yl)methyl]benzonitrile]"
23,10 to 1000,"N#Cc1ccc(-c2ncc(CCN)cn2)c(Cn2cc(-c3ccccc3)cn2)c1 [compound 1201, 4-[5-(2-aminoethyl)pyrimidin-2-yl]-3-[(4-phenylpyrazol-1-yl)methyl]benzonitrile]"
24,< 10,"Cc1nn(-c2ccccn2)cc1Cc1cc(C#N)ccc1-c1ncc(CCN)cn1 [compound 1202, 4-[5-(2-aminoethyl)pyrimidin-2-yl]-3-[(3-methyl-1-pyridin-2-ylpyrazol-4-yl)methyl]benzonitrile]"
25,< 10,"Cc1nn(-c2ccccn2)cc1Cc1cc(C#N)ccc1-c1ccc(CCN)cn1 [compound 1203, 4-[5-(2-aminoethyl)pyridin-2-yl]-3-[(3-methyl-1-pyridin-2-ylpyrazol-4-yl)methyl]benzonitrile]"
26,10 to 1000,"Cc1cc(Cc2cc(C#N)ccc2-c2ncc(CCN)cn2)cc(N2CCOCC2)n1 [compound 1204, 4-[5-(2-aminoethyl)pyrimidin-2-yl]-3-[(2-methyl-6-morpholin-4-ylpyridin-4-yl)methyl]benzonitrile]"
27,< 10,"Cn1nc(-c2ccccn2)cc1Cc1cc(C#N)ccc1-c1ncc(CN)cn1 [compound 1205, 4-[5-(aminomethyl)pyrimidin-2-yl]-3-[(2-methyl-5-pyridin-2-ylpyrazol-3-yl)methyl]benzonitrile]"
28,< 10,"CCN(CC)c1cc(Cc2cc(C#N)ccc2-c2ncc(CN)cn2)n(C)n1 [compound 1206, 4-[5-(aminomethyl)pyrimidin-2-yl]-3-[[5-(diethylamino)-2-methylpyrazol-3-yl]methyl]benzonitrile]"
